For data set [1], the system named is 1411HP germ cell tumor xenografts. Nature of the data set: Nude mouse xenograft model of resistant 1411HP. In kind it is in vivo. The settings on record: 60 mg/kg peroral; 24 h.
A short description of a further data set: Solubility in water. In kind it is physicochemical.
A further data set has as its system 518A2 cells. Put plainly: ROS generation, NBT assay, 518A2. In kind it is cell-based, human. Particulars: 50 μM, relative to untreated controls (1%), mean ± SD. How it is done:
The generation of reactive oxygen species (ROS) in tumor cells is a sign of cellular stress resulting in severe damage of cellular components such as DNA, lipids or proteins.
For the NBT assay, HL-60 cells (0.5·10^6/mL) were plated in 96-well tissue culture plates, and test compounds were added after 24 h incubation at 37° C. to achieve a final concentration of 50 μM. […] After removal of the cell medium by centrifugation, the cells in each well were resuspended in 100 μL 0.1% NBT, and the plates were placed in the incubator for 1 h. The reduced NBT was solubilized with 100 μl 2 M KOH and 130 μl DMSO for 30 min. The absorbance was measured for each well at 630 and 405 nm (background) using an ELISA plate reader. The adherent 518A2 cells (0.5·10^4/mL) were seeded out in 96-well tissue culture plates after trypsinization and incubation for 24 h at 37° C. to allow attachment, then treated similarly, only that the medium was removed prior to incubation with NBT for 4 h. All experiments were carried out in quadruplicate.

The test system of a further data set is HL-60 cells. Nature of the data set: Mitochondrial membrane assay (JC-1), HL-60. In kind it is cell-based, human. The settings on record: 5 μM, red/green fluorescence ratio relative to untreated controls (100%), mean ± SD. The protocol:
Values represent means of four independent experiments±standard deviation.
Changes in mitochondrial membrane potential were determined by the Mitochondrial Membrane Detection Kit (Stratagene, La Jolla, Calif., USA) according to the manufacturer's procedure. 72 h following treatment with 5 μM of the test compounds, cell samples were centrifuged at 400 g for 5 min. The pellets were resuspended in 500 μL diluted JC-1 solution, incubated at 37° C. for 15 min (HL-60) and then centrifuged again for 5 min at 400 g. After washing, the pellets were resuspended in 100 μL PBS and transferred into the wells of a black 96-well plate. The red (λex=585 nm, λem=590 nm) and green (λex=510 nm, λem=527 nm) fluorescence intensities were measured and their ratio was calculated.

Data set [2] can be described thus: Solubility in physiological saline solution. In kind it is physicochemical. Particulars: saline or isotonic, read-out: concentration achieved in physiological saline solution. The protocol:
(§1) For the biotests compound 5b was dissolved in physiological saline solution. […] Customarily, in vivo applications to animals require only concentrations up to 3 mM. In order to check the chemical stability of such solutions of 5b they were stored for one month and subsequently used in in vitro tests alongside freshly prepared solutions of the same concentrations of 5b.

Data set [3] in a line: Chemical stability of solutions stored for one month, retested in vitro. In kind it is physicochemical. The settings on record: solution stored for one month vs freshly prepared; tubulin polymerization and SRB assays. The protocol: as §1
On the technique in general: In SRB staining, fixed cells bind dye roughly in proportion to their protein.

The test system of data set [4] is H12.1 germ cell tumor cell line. Nature of the data set: SRB-cytotoxicity assay, H12.1. In kind it is cell-based. The settings on record: Homo sapiens, 96 h. The protocol: The cytotoxic activity of 5b was established by standard colorimetric tests (SRB- and MTT-assays) against various tumor cell lines of different entities. For the SRB cytotoxicity assay, dose-response curves of the testicular germ cell tumor cell lines exposed to drug concentrations of 0.001-10 μM were established using the sulforhodamine-B (SRB) microcuiture colorimetric assay (Papazisis et al. Optimization of the sulforhodamine B colorimetric assay. J. Immunol. Methods 1997, 208, 151-158) and performed as described in: Müller et al. Failure of activation of caspase-9 induces a higher threshold for apoptosis and cisplatin resistance in testicular cancer. Cancer Res. 2003, 63, 513-521. Briefly, cells were seeded into 96-well plates on day 0, at cell densities previously determined to ensure exponential cell growth during the period of the experiment. On day 1, cells were treated with the drugs dissolved in medium to give the appropriate concentrations for indicated times and the percentage of surviving cells relative to untreated controls was determined on day 5.

The test system of the next data set is tubulin. Nature of the data set: Tubulin Polymerization assay (fluorescence kit). In kind it is biochemical. The protocol:
Analysis of tubulin polymerization was performed using the Tubulin Polymerization Assay Kit (Cytoskeleton, USA) according to manufacturer's instructions. The assay is fluorescence-based and tubulin polymerization was followed by measuring RFU (relative fluorescence units) on the SpectraFluor Plus (Tecan, Switzerland) using the following filters: excitation 360 nm, emission 465 nm.

Entries after “also recorded” stand apart in the source; their conditions may differ.

Regarding `COc1ccc(-c2c(-c3cc(Br)c(OC)c(OC)c3)ncn2C)cc1N` [compound 6b, 1-methyl-5-(3-amino-4-methoxyphenyl)-4-(3-bromo-4,5-dimethoxyphenyl)-imidazole], in data set [1], the “vascular disrupting effect after oral administration” value is “occurred to same extent as seen after i.p. application”. Also, in the data set “Solubility in water”, the solubility was > 10000 µg/mL. In addition, the “NBT Reduction [%] in 518A2 cells after 24 h” value with 518A2 cells is 1.5 ± 0.2%. Further, the “Intact mitochondria [%] in HL-60 cells after 72 h” value in the data set on HL-60 cells turned out to be 66 ± 10%.

On to `COc1ccc(-c2c(-c3cc(Cl)c(OC)c(OC)c3)ncn2C)cc1N` [compound 5b, 1-methyl-5-(3-amino-4-methoxyphenyl)-4-(3-chloro-4,5-dimethoxyphenyl)-imidazole], for which the solubility was ≥ 10 mM in data set [2] and > 10000 µg/mL in the data set “Solubility in water”. Moreover, the “chemical stability in solution (activity retained)” value in data set [3] was “No loss of activity; also recorded: persistence of efficacy; also recorded: high, unattenuated activity and efficacy”. The IC50 (commonly the concentration that inhibits the measured activity by half) in data set [4] is 30 to 50 nM. The “NBT Reduction [%] in 518A2 cells after 24 h” value in the data set on 518A2 cells is 1.8 ± 0.2%. Besides, the “inhibition of tubulin polymerization” value in the data set on tubulin is given as “effectively inhibits the polymerization of tubulin”.
